In brackets after ≈: the same amount, converted by molar mass. Read-outs that look alike come from different tables or passages of the source. Numbered stars: 1 amine (or outer) side, 2 acyl side, 3 side chain; on linkers, the order of the positions; unused ones are H or OH. Bridge positions count the residues as written; N and C are the ends. Square brackets hold non-standard residues; d marks the D form. Peptide text beside a SMILES is read from it. I, II: the chains in the order shown. Actinocin(9to1) = Cc1c2oc3c(C)ccc(C(=O)[*:1])c3nc-2c(C(=O)[*:2])c(N)c1=O; NMeV = CN[C@H](C(=O)O)C(C)C; Sar = CNCC(=O)O
How the values were obtained:
MRSA USA300 [1] = assay: Library hits: MIC/MBC against MRSA; type: cell-based, Staphylococcus aureus
[2] = system: vancomycin resistant E. faecium ATCC 700221 (VRE); assay: Library hits: MIC/MBC against VRE; type: cell-based
[3] = system: K. pneumoniae ATCC BAA-1705; assay: Library hits: MIC against K. pneumoniae; type: cell-based
[4] = system: A. baumannii ATCC BAA-1605; assay: Library hits: MIC against A. baumannii; type: cell-based
E. cloacae ATCC BAA-1143 = assay: Library hits: MIC against E. cloacae; type: cell-based
P. aeruginosa ATCC 15442 = assay: Library hits: MIC against P. aeruginosa; type: cell-based
intracellular MRSA = assay: Synergy with conventional antimicrobials in infected cell cultures; type: cell-based; conditions: compared to monotherapy
[5] = system: MRSA USA300 persister cells tolerant to ciprofloxacin; assay: Killing of S. aureus persister cells; type: cell-based; conditions: added after ciprofloxacin treatment; 48 h
MRSA USA300 [6] = assay: Mouse model of MRSA systemic infection (lethal); type: in vivo, BALB/c mice; conditions: oral 25 mg/kg once daily, three doses
Source text: For MRSA systemic infection, neutropenic Female BALB/c mice were inoculated IP with 1×10^9 MRSA USA300.

A. baumannii = assay: MIC against G-ve with and without colistin: A. baumannii; type: cell-based
E.. coli O157:H7 = assay: MIC against G-ve with and without colistin: E. coli O157:H7; type: cell-based; conditions: E. coli O157:H7
S. Typhimurium = assay: MIC against G-ve with and without colistin: S. Typhimurium; type: cell-based
K. pneumonia = assay: MIC against G-ve with and without colistin: K. pneumonia; type: cell-based
P. aeruginosa = assay: MIC against G-ve with and without colistin: P. aeruginosa; type: cell-based
[7] = Staphylococcus aureus, read-out: MBC
[8] = Staphylococcus aureus, read-out: MIC

Molecule | MBC (MRSA USA300 [1]; [7]) [µM] | MIC (MRSA USA300 [1]; [8]) [µM] | MIC ([2]; VRE, read-out: MIC) [µM] | other results
O=c1[nH]cc(F)c(=O)[nH]1 [5-Fluorouracil] | 16 (≈ 2.08 µg/mL) | 4 (≈ 0.52 µg/mL) | > 16 | –
CCCCCCCCCOc1ccc2[nH]cc(CCN)c2c1 [5-Nonyloxytryptamine] | – | – | – | MBC (MRSA USA300 [1]; Staphylococcus aureus): 8 µM (≈ 2.42 µg/mL); MIC (MRSA USA300 [1]; Staphylococcus aureus): 4 µM (≈ 1.21 µg/mL); MIC [2]: 8 µM (≈ 2.42 µg/mL); MIC/MBC [3]: >16 µM; MIC/MBC [4]: 16 µM (≈ 4.84 µg/mL); MIC/MBC (E. cloacae ATCC BAA-1143): 16 µM (≈ 4.84 µg/mL); MIC/MBC (P. aeruginosa ATCC 15442): >16 µM
CC(=O)Nc1nnc(S(N)(=O)=O)s1 [Acetazolamide] | – | > 16 | 1 (≈ 0.222 µg/mL) | –
c1ccc(-c2ccc(C(c3ccccc3)n3ccnc3)cc2)cc1 (stereo not drawn) [Bifonazole] | > 64 | 8 (≈ 2.48 µg/mL) | > 16 | –
CCCCCCNC(=O)n1cc(F)c(=O)[nH]c1=O [Carmofur] | 4 (≈ 1.03 µg/mL) | 2 (≈ 0.515 µg/mL) | > 16 | –
CCN(CC)CCOc1ccc(C(=C(Cl)c2ccccc2)c2ccccc2)cc1 [Clomid] | 32 (≈ 13 µg/mL) | 16 (≈ 6.5 µg/mL) | 16 (≈ 6.5 µg/mL) | –
Clc1ccccc1C(c1ccccc1)(c1ccccc1)n1ccnc1 [Clotrimazole] | 64 (≈ 22.1 µg/mL) | 4 (≈ 1.38 µg/mL) | > 16 | –
Cc1c2oc3c(C)ccc(C(=O)N[C@@H]4C(=O)N[C@H](C(C)C)C(=O)N5CCC[C@H]5C(=O)N(C)CC(=O)N(C)[C@@H](C(C)C)C(=O)O[C@@H]4C)c3nc-2c(C(=O)N[C@@H]2C(=O)N[C@H](C(C)C)C(=O)N3CCC[C@H]3C(=O)N(C)CC(=O)N(C)[C@@H](C(C)C)C(=O)O[C@@H]2C)c(N)c1=O [Dactinomycin] (I: T[dV]P[Sar][NMeV] / II: T[dV]P[Sar][NMeV]; ester I:1-I:C, II:1-II:C; linker I:N-II:N via Actinocin(9to1)) | – | – | – | MIC (MRSA USA300 [1]; Staphylococcus aureus): > 16 µM; MIC [2]: 0.5 µM (≈ 0.628 µg/mL)
COc1cccc2c1C(=O)c1c(O)c3c(c(O)c1C2=O)C[C@@](O)(C(C)=O)C[C@@H]3O[C@H]1C[C@H](N)[C@H](O)[C@H](C)O1 [Daunorubicin] | – | – | – | MBC (MRSA USA300 [1]; Staphylococcus aureus): 16 µM (≈ 8.44 µg/mL); MIC (MRSA USA300 [1]; Staphylococcus aureus): 16 µM (≈ 8.44 µg/mL); MIC [2]: 8 µM (≈ 4.22 µg/mL)
Clc1ccc(COC(Cn2ccnc2)c2ccc(Cl)cc2Cl)cc1 (stereo not drawn) [Econazole] | 32 (≈ 12.2 µg/mL) | 4 (≈ 1.53 µg/mL) | > 16 | –
COc1cccc2c1C(=O)c1c(O)c3c(c(O)c1C2=O)C[C@@](O)(C(=O)CO)C[C@@H]3O[C@H]1C[C@H](N)[C@@H](O)[C@H](C)O1 [Epirubicin] | 64 (≈ 34.8 µg/mL) | 16 (≈ 8.7 µg/mL) | 8 (≈ 4.35 µg/mL) | –
O=c1[nH]c(=O)n(C2CCCO2)cc1F (stereo not drawn) [Ftorafur] | – | > 16 | 16 (≈ 3.2 µg/mL) | –
NS(=O)(=O)c1cc(C(=O)O)c(NCc2ccco2)cc1Cl [Furosemide] | – | > 16 | 4 (≈ 1.32 µg/mL) | –
CC(=O)[C@]1(O)Cc2c(O)c3c(c(O)c2[C@@H](O[C@H]2C[C@H](N)[C@H](O)[C@H](C)O2)C1)C(=O)c1ccccc1C3=O [Idarubicin] | 4 (≈ 1.99 µg/mL) | 4 (≈ 1.99 µg/mL) | 4 (≈ 1.99 µg/mL) | –
CC(C)NCC(O)c1ccc(O)c(O)c1 (stereo not drawn) [Isoproterenol] | 64 (≈ 13.5 µg/mL) | 16 (≈ 3.38 µg/mL) | > 16 | –
CC(C)c1ccc2c(c1)c(SC(C)(C)C)c(CC(C)(C)C(=O)O)n2Cc1ccc(Cl)cc1 [MK-886] | – | – | 8 (≈ 3.78 µg/mL) | MBC (MRSA USA300 [1]; MRSA, read-out: MBC): 16 µM (≈ 7.55 µg/mL); MIC (MRSA USA300 [1]; MRSA, read-out: MIC): 8 µM (≈ 3.78 µg/mL)
Clc1ccc(COC(Cn2ccnc2)c2ccc(Cl)cc2Cl)c(Cl)c1 (stereo not drawn) [Miconazole] | 8 (≈ 3.33 µg/mL) | 4 (≈ 1.66 µg/mL) | > 16 | –
Clc1ccc(CO/N=C(\Cn2ccnc2)c2ccc(Cl)cc2Cl)c(Cl)c1 [Oxiconazole] | 32 (≈ 13.7 µg/mL) | – | – | –
Cc1nc2ccc(CN(C)c3ccc(C(=O)N[C@@H](CCC(=O)O)C(=O)O)s3)cc2c(=O)[nH]1 [Raltitrexed] | – | > 16 | 2 (≈ 0.917 µg/mL) | –
CC/C(=C(\c1ccccc1)c1ccc(OCCN(C)C)cc1)c1ccccc1 [Tamoxifen] | 16 (≈ 5.94 µg/mL) | 16 (≈ 5.94 µg/mL) | > 16 | –
CN(C)CCOc1ccc(/C(=C(/CCCl)c2ccccc2)c2ccccc2)cc1 [Toremifene] | 16 (≈ 6.5 µg/mL) | 16 (≈ 6.5 µg/mL) | 16 (≈ 6.5 µg/mL) | –
CSc1nc2cc(Cl)c(Oc3cccc(Cl)c3Cl)cc2[nH]1 [Triclabendazole] | 32 (≈ 11.5 µg/mL) | 8 (≈ 2.88 µg/mL) | > 16 | –
CC[C@H]1OC(=O)[C@H](C)[C@@H](O[C@H]2C[C@@](C)(OC)[C@@H](O)[C@H](C)O2)[C@H](C)[C@@H](O[C@@H]2O[C@H](C)C[C@H](N(C)C)[C@H]2O)[C@](C)(O)C[C@@H](C)C(=O)[C@H](C)[C@@H](O)[C@]1(C)O [erythromycin] | – | – | – | activity when combined with Auranofin and Ebselen in infected cell cultures (intracellular MRSA): synergistic activity
CC(=O)NC[C@H]1CN(c2ccc(N3CCOCC3)c(F)c2)C(=O)O1 [linezolid] | – | – | – | effect on number of planktonic persister cells [5]: minimal impact; mice survival (MRSA USA300 [6]): significantly increased mice survival
C=C[C@]1(C)C[C@@H](OC(=O)CS[C@@H]2C[C@H]3CC[C@@H](C2)N3C)[C@]2(C)[C@H](C)CC[C@]3(CCC(=O)[C@H]32)[C@@H](C)[C@@H]1O [retapamulin] | – | – | – | effect on number of planktonic persister cells [5]: minimal impact
colistin | – | – | – | MICs of colistin (A. baumannii): 0.25 µg/mL; MICs of colistin (E.. coli O157:H7): 0.25 µg/mL; MICs of colistin (S. Typhimurium): 1 µg/mL; MICs of colistin (K. pneumonia): 0.25 µg/mL; MICs of colistin (P. aeruginosa): 0.5 µg/mL
